Here are results for 16 compounds from PubChem BioAssay (NCI).

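Five compound concentrations were applied to cells in 96-well plates for 48 hours; endpoints were derived by simple linear interpolation of the resulting dose-response curve. GI50 = concentration required for 50% inhibition of growth. TGI marks complete inhibition of growth.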

Holding throughout (assay): growth of human tumour cells (NCI), 48 h
Experiment [1] deals with UO-31 renal.
The subject of experiment [2] is MDA-MB-435.
The test system of experiment [3] is MOLT-4 leukemia.
In experiment [4] the test system is TK-10 renal.
Experiment [5] deals with M14 melanoma.
The subject of experiment [6] is U251 CNS.
Experiment [7] concerns A498 renal.
Experiment [8] has as its system NCI-H460 lung.
The test system of experiment [9] is KM12 colon.
The subject of experiment [10] is OVCAR-4 ovarian.

With `COc1ccccc1NS(=O)(=O)c1ccc2oc(SC(C)C)nc2c1`, the GI50 was 18.4 µM in experiment [1]; 18.7 µM in [2]; 5.23 µM in [3]; 18.5 µM in experiment [4]; 36.1 µM in experiment [5]; 33.1 µM in [6]. For the same compound, the GI50 is 23.3 µM in experiment [7], 15.7 µM in experiment [8], 18.5 µM in experiment [9] and 8.67 µM in [10]. For the same compound, the TGI in [1] is 70.3 µM; in [2], 94 µM; in [3], 39.7 µM; in [4], 53.8 µM; in [5] it was over 100 µM; in experiment [6], over 100 µM. Also, the TGI was 61.7 µM in experiment [7], over 100 µM in experiment [8], 49 µM in experiment [9] and 77.6 µM in experiment [10].

Regarding `O=S(=O)(Nc1ccc(F)c(Cl)c1)c1ccc(-c2cnc(C3CC3)o2)cc1`, the GI50 was 0.584 µM in experiment [1]; 0.0313 µM in experiment [2]; 0.396 µM in experiment [3]; 1.11 µM in experiment [4]; 0.264 µM in [5]; 0.438 µM in [6]. Besides, the GI50 was 0.156 µM in [7], 0.377 µM in [8], 0.151 µM in experiment [9] and 1.2 µM in [10]. The TGI came out at 6.37 µM in experiment [1]; 0.187 µM in experiment [2]; 88.2 µM in [3]; 8.29 µM in [4]; 7.13 µM in experiment [5]; 13.7 µM in experiment [6]. For the same compound, the TGI came out at 0.823 µM in [7], 4.29 µM in experiment [8], 9.3 µM in [9] and 11.7 µM in [10].

Take `Nc1nc(N)c2cc(Sc3cccc(C(F)(F)F)c3)ccc2n1`: the TGI in experiment [1] was 9.84 µM; in experiment [2], 5.81 µM; in experiment [3], 6.08 µM; in experiment [4], 14 µM; in experiment [5], 2.21 µM; in [6], 4.78 µM. For the same compound, the TGI in experiment [7] amounted to 14.4 µM; in experiment [8] it was 4.77 µM; in experiment [9], 11.3 µM; in [10], 18.6 µM. The GI50 in [7] was 2.17 µM.

For `N#CN1CC[C@H](C(=O)Nc2cc3cc(C(N)=O)ccc3cn2)C1`, the GI50 in experiment [1] was 0.107 µM; in experiment [2], 0.045 µM; in [3], 0.0488 µM; in experiment [4], 0.232 µM; in [5] it was 0.0694 µM; in [6], 0.0815 µM. The GI50 in experiment [7] was 0.0765 µM; in [8], 0.188 µM; in experiment [9], 0.0566 µM; in experiment [10], 0.041 µM. Also, the TGI in experiment [1] is 0.518 µM; in experiment [2] it was 13.2 µM; in experiment [4] it was 2.44 µM; in experiment [5], 1.13 µM; in experiment [6], 38.4 µM; in experiment [7] it was 0.31 µM. For the same compound, the values for the TGI in experiment [8], in experiment [9] and in [10] were over 44 µM, 12 µM and 1.6 µM, respectively.

As for `NC(=S)N=Nc1c(O)c2ccccc2c2ccccc12`, the GI50 in experiment [1] was 3.26 µM; in experiment [2], 1.85 µM; in experiment [3], 33.7 µM; in experiment [4], 44.6 µM; in experiment [5], 1.78 µM; in [6], 3.07 µM. In addition, the GI50 in experiment [7] is 14.9 µM; in [8] it was 3.23 µM; in experiment [9], 48.2 µM; in experiment [10], 13 µM. Also, the TGI was over 76.1 µM in [1]; 3.45 µM in [2]; over 73.5 µM in experiment [3]; over 94.1 µM in experiment [4]; 3.35 µM in [5]; 11.4 µM in [6]. Moreover, the TGI in [7] was 45.7 µM; in [8], 11.6 µM; in experiment [9], over 100 µM; in experiment [10] it was 37 µM.

Consider `Nc1nc(=O)n([C@@H]2CS[C@H](CO)O2)cc1F`, for which the GI50 in experiment [1], in experiment [2], in experiment [3], in [4], in experiment [5] and in [6] was over 100 µM throughout. Moreover, the GI50 in experiment [7], in [8], in experiment [9] and in experiment [10] was over 100 µM in each case. For the same compound, the TGI in experiment [1], in experiment [2], in experiment [3], in experiment [4], in experiment [5] and in experiment [6] was over 100 µM throughout. Besides, the TGI in [7], in experiment [8], in [9] and in experiment [10] was over 100 µM throughout.

Regarding `COc1ccc(C(CC(=O)c2ccccc2)C(C(=O)c2ccccc2)C(c2ccc(OC)cc2)C2C(=O)NC(=S)NC2=O)cc1` (centres undefined), the GI50 was 7.32 µM in experiment [1]; 10.6 µM in [2]; 11.4 µM in experiment [3]; 18.7 µM in experiment [4]; 36.9 µM in experiment [5]; 7.42 µM in [6]. Also, the GI50 in experiment [7] was 3.19 µM; in experiment [8] it was 5.88 µM; in [9] it was 8.12 µM; in experiment [10], 30.3 µM. Moreover, the TGI is 26.1 µM in experiment [1]; 35.3 µM in experiment [2]; over 100 µM in experiment [3]; over 100 µM in [4]; over 100 µM in [5]; 23.6 µM in experiment [6]. Moreover, the TGI is 23.2 µM in experiment [7], 50.7 µM in [8], 39.8 µM in experiment [9] and over 100 µM in experiment [10].

With `C[C@@H]1COCCN1c1cc(C2([S@@](C)(=N)=O)CC2)nc(-c2ccnc3[nH]ccc23)n1`, the GI50 in experiment [1] is 4 µM; in [2], 5.27 µM; in experiment [3], 3.99 µM; in experiment [4], 6.71 µM; in experiment [5] it was 3.52 µM; in [6], 12.3 µM. Besides, the GI50 in experiment [7] was 0.716 µM; in [8] it was 3.09 µM; in experiment [9], 5.8 µM; in experiment [10], 3.41 µM. Also, the TGI is 50 µM in [1]; over 100 µM in [2]; 62.6 µM in experiment [3]; over 71.9 µM in experiment [4]; 26.4 µM in experiment [5]; over 100 µM in [6]. Moreover, the TGI is 4.2 µM in experiment [7], over 69.8 µM in experiment [8], over 100 µM in experiment [9] and 63.9 µM in [10].

For the compound `CC(=O)OC1CC[C@@]2(C)C(CC[C@]3(C)C2CC=C2[C@@H]4C(C)[C@H](C)CCC4(C)CCC23C)[C@@]1(C)C(=O)O` (some centres undefined), the TGI was found to be 39.9 µM in experiment [1]; 40.6 µM in experiment [2]; 69.6 µM in [3]; 30.7 µM in experiment [4]; 52.4 µM in experiment [5]; 58.2 µM in experiment [6]. The TGI was found to be 37.2 µM in experiment [7], 71.6 µM in experiment [8], 53.9 µM in experiment [9] and 66.7 µM in [10].

As for `O=C(Nc1ccccc1O)c1ccc(NS(=O)(=O)c2cccc3cccnc23)cc1`, the GI50 was 0.73 µM in experiment [1]; 0.806 µM in [2]; 1.21 µM in experiment [3]; 0.704 µM in experiment [4]; 1.18 µM in experiment [5]; 1.3 µM in experiment [6]. For the same compound, the GI50 was 0.208 µM in experiment [7], 1.05 µM in experiment [8], 2.73 µM in experiment [9] and 2.24 µM in experiment [10]. In addition, the TGI in [1] was 4.14 µM; in experiment [2], 4.86 µM; in experiment [3], over 25 µM; in experiment [4] it was 3.45 µM; in experiment [5], 5.61 µM; in experiment [6], 5.4 µM. For the same compound, the TGI in experiment [7] worked out at 1.62 µM; in [8] it was 7.28 µM; in [9], 7.29 µM; in experiment [10], 24.5 µM.

As for `O=C(Nc1cc(Oc2cc(F)c(NC(=O)C3(C(=O)Nc4ccc(F)cc4)CC3)cc2F)ccn1)C1CC1`, the GI50 was 2.68 µM in experiment [1]; 1.53 µM in experiment [2]; 2.18 µM in experiment [3]; 4.14 µM in experiment [4]; 1.53 µM in [5]; 3.96 µM in [6]. Also, the results for the GI50 in experiment [7], in [8] and in [10] were 2.41 µM, 3.27 µM and 3.93 µM, respectively. Also, the TGI in [1] is 7.23 µM; in [2], 4.26 µM; in [3], 7.1 µM; in experiment [4] it was over 100 µM; in [5], 5.23 µM; in experiment [6], over 46.3 µM. The TGI in [7] is 5.18 µM; in [8] it was over 34.7 µM; in experiment [9], 7.42 µM; in experiment [10] it was over 30.8 µM.

Take `O=c1oc2ccc(-c3ccc(F)cc3F)cc2c(=O)n1-c1ccc(Cl)c(C(F)(F)F)c1`: the GI50 in [1] is 2.44 µM; in [2] it was 3.07 µM; in experiment [3], 2.33 µM; in experiment [4], 4.41 µM; in experiment [5], 2.45 µM; in experiment [6] it was 2.36 µM. Also, the GI50 in experiment [7] was 0.656 µM; in experiment [8], 2.96 µM; in experiment [9] it was 2.36 µM; in [10] it was 3.16 µM. The TGI in experiment [1] was 8.4 µM; in experiment [2], 9.83 µM; in experiment [3], 5.45 µM; in experiment [4], 19.1 µM; in experiment [5] it was 6.79 µM; in [6] it was 12.5 µM. Besides, the TGI in experiment [7] is 2.4 µM; in experiment [8], over 100 µM; in experiment [9], 5.85 µM; in [10] it was over 100 µM.

Consider `Cc1cccc(NC(=O)/C=C/c2ccc([N+](=O)[O-])cc2)c1`, for which the TGI in experiment [1] is over 50.4 µM; in experiment [2], over 52.3 µM; in [3] it was over 65.4 µM; in [4], over 56.8 µM; in [5], over 59.4 µM; in experiment [6], over 52.9 µM. For the same compound, the TGI in experiment [7] was over 100 µM; in experiment [8] it was over 64.5 µM; in experiment [9] it was over 52.8 µM; in experiment [10], over 56.3 µM.

With `COc1ccc(/C=C\c2cc(OC)c(OC)c(OC)c2)cc1OCC(=O)Nc1ccc2nc(C)sc2c1`, the GI50 in experiment [1] was 2.41 µM; in experiment [2] it was 2.13 µM; in [3], 2.11 µM; in experiment [4] it was 4.21 µM; in experiment [5], 3.38 µM; in experiment [6] it was 3.59 µM. In addition, the GI50 in experiment [7] was 4.18 µM; in experiment [8], 3.36 µM; in experiment [9], 3.79 µM; in experiment [10], 2.64 µM. In addition, the TGI in [1] was 7.5 µM; in experiment [2] it was 6.18 µM; in experiment [3], 5.68 µM; in [4], over 100 µM; in experiment [5], 10.4 µM; in experiment [6], over 100 µM. The TGI in [7] is over 100 µM; in experiment [8], 33.2 µM; in experiment [9] it was 14.8 µM; in [10], 9.18 µM.

As for `O=C(CC(=O)c1cccc(Cl)c1)c1cccc(Cl)c1`, the GI50 in experiment [1] was 3.98 µM; in experiment [2] it was 3.18 µM; in experiment [3] it was 2.08 µM; in [4], 4.12 µM; in experiment [5] it was 2.35 µM; in experiment [6], 1 µM. Moreover, the GI50 is 5.07 µM in experiment [7], 0.95 µM in experiment [8], 3.02 µM in experiment [9] and 1.9 µM in [10]. In addition, the TGI in [1], in [2], in [3], in experiment [4], in [5] and in experiment [6] was over 100 µM throughout. Further, the TGI in [7], in [8], in experiment [9] and in [10] was over 100 µM in each case.

For `O=C1c2ccccc2C(=O)c2c(NCC3CO3)ccc(NCC3CO3)c21` (centres undefined), the TGI in experiment [1] was found to be 5.13 µM; in experiment [2] it was 2.58 µM; in experiment [3], 0.53 µM; in experiment [4] it was 45 µM; in [5] it was 2.57 µM; in experiment [6], 8.38 µM. Besides, the TGI in [7] was over 83.9 µM; in experiment [8], over 53.9 µM; in experiment [9] it was 19.4 µM; in experiment [10], 34 µM.
